Patent US20260364168A1, “USE OF PROTEIN KINASE C (PKC) ACTIVATING COMPOUNDS AS AN ADJUVANT” (priority 2022, published 2026)
Read-outs that look alike come from different tables or passages of the source.

Assays:
human PBMC cells = test: cytokine/chemokine gene expression (TaqMan) in human PBMC; details: 4 h
Protocol: Materials and methods: 100 million frozen human PBMC cells were purchased from Allcells (100 million/vial). The cells were thawed and recovered for one day before 1.5-1.8 million cells in 900 μl RPMI1640 with 10% heat-inactivated FBS were seeded in each well of 24-well plates. Various compounds in DMSO stock (500×) were diluted 50-fold with the same media to make 10× compound stock for most compounds. 1 μL of 5 mg/mL PMA was diluted to 99 μL of the media to make 50 μg/mL PMA. For PMA with ionomycin treatment condition, 1.5 μL of 50 μg/mL PMA and 3 μL of 500 μg/mL ionomycin were added to 145.5 μL of the media to make 10× compound stock. Sources of the compounds are as follows: PMA from Abcam (Abcam #ab120297); Ionomycin from Sigma (Sigma #I0634); Resiquimod from Sellect Chem. (Selleckchem #S8133); and LPS from Sigma (Sigma #L6143).
Each treatment condition was performed in duplicates. After treatment, mRNA was extracted from cells and samples from duplicates were combined for TaqMan gene expression assays (ThermoFisher) in triplicates. Expression of 19 genes (IL-1β, IL-2, IL-4, IL-6, IL-8, IL-10, IL-13, IL-18, IL-12p70/IL-12A, IL-12p40/IL-12B, IFN-α, IFN-γ, GM-CSF/CSF2, CCL2/MCP-1, MIP1a/CCL3, TNF-α, MX1, OAS1, ISG15) along with two housekeeping gene controls, 18S and GAPDH, was determined. Target gene expression in each sample was determined by relative quantification (RQ) using the comparative Ct (ΔΔCT) method. This method measures the Ct difference (ΔCT) between target gene and the housekeeping genes (18S & GAPDH), then compares the ΔCT values of treated samples to DMSO-treated control samples. The mean ΔCT value of the DMSO-treated control from two independent DMSO-treated control samples was used. The relative expression level of target gene was calculated by using the equation:
relative expression=2^−ΔΔCT

NFκB [1] = test: NFκB luciferase reporter gene assay in HeLa-NFκB luciferase reporter cell line; type: cell-based; details: 16 h, 37 °C, luciferase/CTG normalized; read-out: NFκB-luc HeLa cells EC50
Protocol: The PKC activator compounds were evaluated for their effect on NFκB expression using a luciferase reporter gene expression system. (The indicators “K-101,” “K101” and “K-101A” may be used interchangeably in this disclosure and appended figures).
A HeLa-NFκB luciferase reporter cell line (Wuxi Biology) was used to assess a group of PKC activator compounds for their ability to activate NFκB-driven transcription. Two sets of cells at 20000 cells/well were plated, grown overnight, and then treated for 16 h at 37 °C with DMSO, 6 doses of each compound, or TNF-α (final concentration of 10 ng/mL, positive control) in triplicates. One set of cells was assayed for luciferase activity (Promega, Cat #E1500) and the other set was assayed to determine the number of viable cells (for cell number normalization) using CellTiter-Glo (CTG) kit (Promega, Cat #G7570) according to manufacture's procedures. Normalized data (luciferase value/CTG value) were analyzed using GraphPad Prism5 to calculate EC50 for each compound (see Table 3).

mouse splenocytes = test: IFN-γ ELISpot in mouse splenocytes; type: cell-based, C57BL/6J mice
Protocol: Production of IFN-γ in response to infection or other stimuli is a hallmark of innate and adaptive immunity. To measure the effect of direct immune stimulation, freshly isolated splenocytes from three C57BL/6J mice were seeded in ELISpot plates pre-coated with anti-IFN-γ antibody (Mabtech, #3321-4AST-2) at 1 million splenocytes per well in OptiVitro® T Cell Serum-free Medium (Excellbio, Cat #TE000-N021). […] Detection of the IFN-γ spot-forming cells was performed according to the manufacture's protocol. Briefly, cells were removed from the ELISpot plates. After washing with PBS, the ELISpot plates were incubated with […] of the R4-6A2-biotin detection antibody for 2 hours at room temperature (RT) and then with streptavidin-ALP (1:1000) at RT for 1 hour. BCIP/NBT chromogen substrate solution was added to the plates until distinct spots emerged. The spots (IFN-γ-secreting cells) were counted using an AID ELISPOT reader.

DC cells = details: Yan et al. 2010; cited from earlier work
[2] = system: antigen-specific T cell responses; details: Yan et al. 2010; cited from earlier work
[3] = system: antigen-specific antibody as well as T cell responses; details: in vivo; Oh et al. 2014; cited from earlier work
NFκB [4] = details: in vitro, TLR5-dependent and -independent; Oh et al. 2014; cited from earlier work
[5] = 0.03 μM, vs DMSO, 240 min, 0.03 µM
[6] = 0.10 μM, vs DMSO, 240 min, 0.1 µM

CC1=C[C@H]2[C@@]3(O)[C@H](C)C[C@]4(OC(=O)C(N)CCCCCCc5ccccc5)[C@H]([C@@H]3C=C(CO)C[C@]2(O)C1=O)C4(C)C (some centres unmarked)
ISG15 gene relative expression (human PBMC cells; 0.03 μM, vs DMSO): 0.97 | MX1 gene relative expression (human PBMC cells; 0.03 μM, vs DMSO): 0.65 | CCL2 gene relative expression (human PBMC cells; [5]): 4.55 | GM-CSF gene relative expression (human PBMC cells; [5]): 1.89 | IFN-α gene relative expression (human PBMC cells; [5]): 1.66 | IFNγ gene relative expression (human PBMC cells; [5]): 1.62 | IL-1β gene relative expression (human PBMC cells; [5]): 0.54 | IL-2 gene relative expression (human PBMC cells; [5]): 1.71 | IL-6 gene relative expression (human PBMC cells; [5]): 0.74 | IL-8 gene relative expression (human PBMC cells; [5]): 0.80 | IL-10 gene relative expression (human PBMC cells; [5]): 1.27 | IL-12p40 gene relative expression (human PBMC cells; [5]): 0.74 | IL-12p70 gene relative expression (human PBMC cells; [5]): 1.02 | IL-13 gene relative expression (human PBMC cells; [5]): 0.40 | IL-18 gene relative expression (human PBMC cells; [5]): 0.47 | MIP1a (CCL3) gene relative expression (human PBMC cells; [5]): 1.86 | OAS1 gene relative expression (human PBMC cells; [5]): 0.64 | TNF-α gene relative expression (human PBMC cells; [5]): 1.38 | CCL2 gene relative expression (human PBMC cells; [6]): 3.12 | GM-CSF gene relative expression (human PBMC cells; [6]): 7.74 | IFN-α gene relative expression (human PBMC cells; [6]): 0.73 | IFNγ gene relative expression (human PBMC cells; [6]): 3.47 | IL-1β gene relative expression (human PBMC cells; [6]): 1.58 | IL-2 gene relative expression (human PBMC cells; [6]): 7.65 | IL-4 gene relative expression (human PBMC cells; [6]): 1.61 | IL-8 gene relative expression (human PBMC cells; [6]): 0.53 | IL-10 gene relative expression (human PBMC cells; [6]): 0.48 | IL-12p70 gene relative expression (human PBMC cells; [6]): 0.93 | IL-13 gene relative expression (human PBMC cells; [6]): 47.45 | IL-18 gene relative expression (human PBMC cells; [6]): 0.09 | ISG15 gene relative expression (human PBMC cells; [6]): 1.16 | MIP1a (CCL3) gene relative expression (human PBMC cells; [6]): 2.39 | MX1 gene relative expression (human PBMC cells; [6]): 0.72 | OAS1 gene relative expression (human PBMC cells; [6]): 0.55 | TNF-α gene relative expression (human PBMC cells; [6]): 4.04 | fold induction at 0.3 µM (human PBMC cells; Homo sapiens, PBMC, read-out: CCL2 gene relative expression, 0.3 μM, 4 h, vs DMSO): 2.09 | fold induction at 0.3 µM (human PBMC cells; Homo sapiens, PBMC, read-out: GM-CSF gene relative expression, 0.3 μM, 4 h, vs DMSO): 10.5 | fold induction at 0.3 µM (human PBMC cells; Homo sapiens, PBMC, read-out: IFN-α gene relative expression, 0.3 μM, 4 h, vs DMSO): 0.95 | fold induction at 0.3 µM (human PBMC cells; Homo sapiens, PBMC, read-out: IFNγ gene relative expression, 0.3 μM, 4 h, vs DMSO): 18.6 | fold induction at 0.3 µM (human PBMC cells; Homo sapiens, PBMC, read-out: IL-1β gene relative expression, 0.3 μM, 4 h, vs DMSO): 1.53 | fold induction at 0.3 µM (human PBMC cells; Homo sapiens, PBMC, read-out: IL-2 gene relative expression, 0.3 μM, 4 h, vs DMSO): 3.41 | fold induction at 0.3 µM (human PBMC cells; Homo sapiens, PBMC, read-out: IL-4 gene relative expression, 0.3 μM, 4 h, vs DMSO): 2.57 | fold induction at 0.3 µM (human PBMC cells; Homo sapiens, PBMC, read-out: IL-6 gene relative expression, 0.3 μM, 4 h, vs DMSO): 4.85 | fold induction at 0.3 µM (human PBMC cells; Homo sapiens, PBMC, read-out: IL-8 gene relative expression, 0.3 μM, 4 h, vs DMSO): 0.59 | fold induction at 0.3 µM (human PBMC cells; Homo sapiens, PBMC, read-out: IL-10 gene relative expression, 0.3 μM, 4 h, vs DMSO): 0.06 | fold induction at 0.1 µM (human PBMC cells; Homo sapiens, PBMC, read-out: IL-12p40 gene relative expression, 0.10 μM, 4 h, vs DMSO): 0.45 | fold induction at 0.3 µM (human PBMC cells; Homo sapiens, PBMC, read-out: IL-12p40 gene relative expression, 0.3 μM, 4 h, vs DMSO): 0.69 | fold induction at 0.3 µM (human PBMC cells; Homo sapiens, PBMC, read-out: IL-12p70 gene relative expression, 0.3 μM, 4 h, vs DMSO): 0.61 | fold induction at 0.3 µM (human PBMC cells; Homo sapiens, PBMC, read-out: IL-13 gene relative expression, 0.3 μM, 4 h, vs DMSO): 78.9 | fold induction at 0.3 µM (human PBMC cells; Homo sapiens, PBMC, read-out: IL-18 gene relative expression, 0.3 μM, 4 h, vs DMSO): 0.04 | fold induction at 0.3 µM (human PBMC cells; Homo sapiens, PBMC, read-out: ISG15 gene relative expression, 0.3 μM, 4 h, vs DMSO): 1.14 | fold induction at 0.3 µM (human PBMC cells; Homo sapiens, PBMC, read-out: MIP1a (CCL3) gene relative expression, 0.3 μM, 4 h, vs DMSO): 3.37 | fold induction at 0.3 µM (human PBMC cells; Homo sapiens, PBMC, read-out: MX1 gene relative expression, 0.3 μM, 4 h, vs DMSO): 0.57 | fold induction at 0.3 µM (human PBMC cells; Homo sapiens, PBMC, read-out: OAS1 gene relative expression, 0.3 μM, 4 h, vs DMSO): 0.42 | fold induction at 0.3 µM (human PBMC cells; Homo sapiens, PBMC, read-out: TNF-α gene relative expression, 0.3 μM, 4 h, vs DMSO): 4.13 | EC50 (NFκB [1]): 0.01 to 0.03 µM | IFN-γ secreting cells/million splenocytes (mouse splenocytes; 60 nM, 24 h, Mouse 1): 245 cells/million splenocytes | IFN-γ secreting cells/million splenocytes (mouse splenocytes; 60 nM, 24 h, Mouse 2): 137 cells/million splenocytes | IFN-γ secreting cells/million splenocytes (mouse splenocytes; 60 nM, 24 h, Mouse 3): 110 cells/million splenocytes | IFN-γ secreting cells/million splenocytes (mouse splenocytes; 200 nM, 24 h, Mouse 1): saturated | IFN-γ secreting cells/million splenocytes (mouse splenocytes; 200 nM, 24 h, Mouse 2): saturated | IFN-γ secreting cells/million splenocytes (mouse splenocytes; 200 nM, 24 h, Mouse 3): saturated | dose-response of IFN-γ production (mouse splenocytes; 60 and 200 nM, in words): a trend of dose-response | minimal effective concentration (mouse splenocytes; Splenocyte, mouse splenocytes, 24 h, read-out: concentration (as low as) at which IFN-γ production was stimulated): 0.06 µM

CCC/C=C/C=C/C(=O)O[C@H]1/C(=C/C(=O)OC)C[C@H]2C[C@H]([C@@H](C)O)OC(=O)C[C@H](O)C[C@@H]3C[C@H](OC(C)=O)C(C)(C)[C@](O)(C[C@@H]4C/C(=C/C(=O)OC)C[C@H](/C=C/C(C)(C)[C@]1(O)O2)O4)O3 [Bryostatin]
chemokine expression in DC cells (DC cells): induces chemokine expression in DC cells | antigen-specific T cell responses from a peptide-based vaccine [2]: stimulates an antigen-specific T cell responses

CCCCCCCCCCCCCC(=O)O[C@@H]1[C@@H](C)[C@@]2(O)[C@@H](C=C(CO)C[C@]3(O)C(=O)C(C)=C[C@@H]23)[C@@H]2C(C)(C)[C@]12OC(C)=O [PMA, Phorbol 12-myristate 13-acetate]
antigen-specific antibody as well as T cell responses [3]: boosts antigen-specific antibody as well as T cell responses in vivo | PKC-dependent NFκB activation (NFκB [4]): induce PKC-dependent NFκB activation
